Experimental data from US5929032A, “Method for treating Schwann and colon cells in vitro” (Amgen Inc., priority 1996, dated 1999).
“Also recorded” adds a separate entry of the source.

Columns and labels:
[1] = tested on: LIM 1215 human colon epithelial cells; test: Crystal violet proliferation assay; assay type: cell-based; conditions: three days, low serum (0.05%) media, crystal violet absorbance at 595 nm
Text: FIG. 2. This figure is a graphical representation of the proliferative effect of the peptides of the invention on human colonic epithelial cells in vitro. These peptides are designated in the figure as EGF-β (SEQ ID NO: 2, above), represented by the closed circles, and as EGF-α/β (SEQ ID NO: 1, above), represented by the open circles. For comparison, two other peptides of equal length are included, designated as EGF-α and EGF-β/α, and represented by the closed squares and open squares, respectively. The latter two are homologs based on the EGF domain of extracellular NDF-heregulins and consist of the amino acid sequences shown further below in this text (SEQ ID NOS: 3 and 4, respectively). Proliferation is measured with a crystal violet dye which stains the cell protein and is indicative of cell number. […] The picomolar (pM) concentration of peptide used to treat the cells is shown on the horizontal axis.
a) Crystal Violet Proliferation Assay. The human colon epithelial cell line, LIM 1215 (Whitehead, R. H. et al., J. Natl. Cancer Inst. 4:759-765, 1985) was grown in RPMI-1640 media supplemented with 5% FBS, 1 μg/ml of hydrocortisone, 1 μg/ml of bovine insulin, 10 μM of alpha thioglycerol, and 1X PSG (0.292 mg/ml of 1-glutamine, 100 units/ml of penicillin G, and 100 μg/ml of streptomycin sulfate). At the start of the assay, the cells were 30% confluent and were proliferating rapidly. Cells were released by trypsin, washed with PBS, and seeded into 96-well plates at 5000 cells/well in low serum (0.05%) media (McCoy's-5A supplemented with 4 μg/ml of transferrin, 10 μg/ml of insulin, 10 mM of selenic acid, 4 nM of triiodothyronine, and 0.03% BSA). Dilutions of test peptide were added immediately on day zero; the total volume was 100 μl. Controls included no treatment and serial dilutions of FBS. The 96-well plates were then incubated for three days at 37° C. in a 5% CO2 atmosphere. The media were removed by aspiration and 30 μl of 2% crystal violet (Difco) in methanol was added to the cells for fifteen minutes of staining. Excess dye was washed away with distilled water. To each well 100 μl of 0.04N HCL in isopropanol was added and the dye was resolubilized by mixing. Absorbance was determined at 595 nm and the values were plotted as fold-stimulation over background (or no treatment).
b) Stimulation of colon cell proliferation. […] The chimeric peptides helped to pinpoint this determinant of activity to the seven residues corresponding to amino acids 222-228 of full length extracellular NDF/heregulin. […]

[2] = tested on: LIM 1215 human colon epithelial cells; test: Morphogenic activity: fluorescent actin staining (NBD phalloidin), confocal microscope; assay type: cell-based; conditions: 420 picomolar peptide, three days, serum-free media
Description: c) Staining of LIM 1215 human colon cells with fluorescent dye. LIM 1215 cells were grown in RPMI-1640 media supplemented with 5% FBS, 1 μg/ml of bovine insulin, 10 μm of alpha thioglycerol, and 1× PSG. At the time of assay, the cells were more than 30% confluent and were proliferating rapidly. The cells were seeded into 24-well plates at 25,000 cells/well in serum-free media (McCoy's-5A, supplemented with 4 μg/ml of transferrin, 10 μg/ml of insulin, 10 mM of selenic acid, […], and 0.03% BSA). Test peptides were added at a concentration of 420 picomolar immediately on day zero; the total volume was 1.0 ml. Controls included no treatment and serial dilutions of FBS. The 24-well plates were then incubated for three days at 37° C. and 5% CO2, after which the media were removed by aspiration and the cells were washed in 1.0 ml of PBS with 0.5% BSA. All subsequent washings were performed with this buffer. The cells were then fixed in Orthopermeafix (Ortho Chemicals Co.) for thirty minutes at room temperature, and were washed twice. Then 200 μl of a 10 nM NBD phalloidin fluorescent dye solution in PBS were added and the cells were incubated in the dark (wrapped in aluminum foil) for thirty minutes at room temperature. The cells were washed twice, and inspected using a confocal microscope.
d) Morphogenic activity of peptides on colon epithelial cells. Upon treatment of LIM 1215 cells with the EGF-β peptide, it was evident that the morphology of the cells changed dramatically. […] In the absence of treatment, the cells appeared small and rounded. […] Because the cells were proliferating rapidly in 5% FBS serum-containing media (FIG. 3), the unique morphology caused by the EGF-β peptide could not have been due solely to its ability to stimulate proliferation. Moreover, the difference in morphogenic activities between EGF-β and EGF-α must have originated in the last sixteen amino acids of the C-terminus, as this is the only difference in sequence between the two peptides.
Further localization of morphogenic activity was obtained by use of the chimeric peptides, EGF-β/α and EGF-α/β. […] Again, the only difference in sequence between these two peptides is the last seven amino acids of the C-terminal portion.

LIM 1215 cells = test: Marker protein expression, ACAS confocal image cytometer; assay type: cell-based, human; parameters: key to Marker Protein Expression: CEA / Marker Protein Expression: Integrin β4 / Marker Protein Expression: Villin: increased expression (+); down-regulated (-); unchanged (0)
Text: Additional confirmation of the importance of this seven amino-acid sequence was obtained by scoring for various marker proteins on the LIM 1215 cells. An ACAS confocal image cytometer was used to detect a number of markers on the cells without detaching the cells from the culture dish, as is normally done for fluorescence activated cell sorting (FACS) analysis. […] The expression of a number of other markers was unchanged (0) by treatment with EGF-β. Analogous to the previous results characterizing gross, observable morphology changes, neither EGF-α nor EGF-β/α changed the levels of these marker proteins, while EGF-α/β changed the expression of the marker proteins in a manner similar to that seen with EGF-β.

Schwann cells = test: Schwann cell proliferation (BrdU incorporation, NGFR staining); assay type: cell-based, rat; conditions: for percent of Schwann cells proliferating: BrdU for six hours after 24 h; for Schwann cell proliferation, comparison in words: versus EGF-β/α
Description: The sciatic nerve from neonatal rats was used to generate a primary culture of Schwann cells. The cells were plated overnight in 10% serum without exposure to any growth factor. The following day, EGF-β, EGF-α/βand EGF-β/α were added at the concentrations in nanograms per milliliter(ng/ml) shown in Table 2, below. Twenty four hours later, BrdU was added to each test sample for six hours. BrdU is a thymidine analog which is incorporated into the DNA of dividing cells and can be detected by standard immunochemistry procedures. This agent thus provides a means for determining expansion of the total amount of DNA in a test sample and is a measure of whether cell proliferation has occurred. Upon the completion of the test period, Schwann cells were fixed and analyzed immunohistochemically. The cells were first stained for nerve growth factor receptor (NGFR), which is a known marker for Schwann cells in culture, followed by staining for BrdU. Cell counting was carried out as follows: in a given microscope field of view, all recognizable Schwann cells were counted, then the number of cells showing positive for BrdU staining were also counted. For each test sample (or well) two or three fields were counted, amounting to about 200 to 300 Schwann cells in all. The result is expressed in Table 2 as the percent of Schwann cells proliferating.

endoproteinase Lys-C = endoproteinase Lys-C (Lysobacter enzymogenes, UniProt Q7M135); test: Digestion by endoproteinase Lys-C (peptide mapping); conditions: cleavage at lysine residue at position 211
Text: The initial studies referred to here utilized peptides based solely on sequences of the EGF-like domain of the aforementioned α2 and β1 forms of NDF/heregulin, that is to say, that portion of the extracellular protein from amino acid residue 177 to amino acid residue 228 (see FIG. 1 herein). […] The reason for this difference was not initially apparent. However, during peptide mapping studies of the EGF-like domains of NDF/heregulins, it was discovered that the α and β forms cleaved (degraded) at different rates when subjected to digestion by endoproteinase Lys-C. […] Moreover, this phenomenon seemed limited to the lysine residue at position 211. There was no apparent difference in the rate of cleavage between α and β at any other lysine residues in the N-terminal end of the EGF-like domain.

[3] = peptide concentration 0.1 ng/ml
[4] = peptide concentration 100 ng/ml

endoproteinase Lys-C, sequence (Q7M135 whole entry, the tested form may be a part): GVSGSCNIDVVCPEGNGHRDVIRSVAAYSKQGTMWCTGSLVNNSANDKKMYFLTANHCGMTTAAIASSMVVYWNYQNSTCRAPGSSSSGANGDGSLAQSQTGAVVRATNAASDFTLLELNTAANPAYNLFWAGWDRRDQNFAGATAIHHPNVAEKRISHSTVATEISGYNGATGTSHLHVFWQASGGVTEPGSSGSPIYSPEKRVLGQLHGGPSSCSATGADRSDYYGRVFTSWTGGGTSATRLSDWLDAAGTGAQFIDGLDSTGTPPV

Substance | proliferation of LIM 1215 cells (fold stimulation, FIG. 2) [1] | morphological (morphogenic) changes of LIM 1215 cells [2] | Marker Protein Expression: CEA (LIM 1215 cells) | Marker Protein Expression: Integrin β4 (LIM 1215 cells) | Marker Protein Expression: Villin (LIM 1215 cells) | percent of Schwann cells proliferating (Schwann cells; [3]) | percent of Schwann cells proliferating (Schwann cells; peptide concentration 1 ng/ml) | percent of Schwann cells proliferating (Schwann cells; peptide concentration 10 ng/ml) | percent of Schwann cells proliferating (Schwann cells; [4]) | Schwann cell proliferation, comparison in words (Schwann cells) | rate of cleavage by endoproteinase Lys-C (endoproteinase Lys-C) | expression of a number of other markers (LIM 1215 cells)
EGF-α/β: chimeric 52-residue peptide SHLVK-(A)-QNYVMAS; α177-221/β222-228 of extracellular NDF/heregulin EGF-like domain (SHLVKCAEKEKTFCVNGGECFMVKDLSNPSRYLCKCQPGFTGARCQNYVMAS) | best results for cell proliferation; also recorded: displayed significant mitogenic activity | evidence of cell development and maturation is seen; also recorded: caused apparent morphogenic changes | + | + | - | 1% | 10% | 10% | 17% | stimulated the proliferation of Schwann cells to a significantly greater extent than EGF-β/α |  | 
EGF-α: comparison 52-residue peptide SHLVK-(A)-TENVPMK; EGF-like domain (residues 177-228) of NDF/heregulin α2 (SHLVKCAEKEKTFCVNGGECFMVKDLSNPSRYLCKCQPGFTGARCTENVPMK) [reference compound] | Some proliferation was obtained; also recorded: not as potent a mitogen | did not produce the same morphogenic changes | 0 | 0 | 0 |  |  |  |  |  | faster enzymatic cleavage | 
EGF-β/α: comparison chimeric 52-residue peptide SHLVK-(B)-TENVPMK; β177-221/α222-228 of extracellular NDF/heregulin (SHLVKCAEKEKTFCVNGGECFMVKDLSNPSRYLCKCPNEFTGDRCTENVPMK) [reference compound] | No effect was seen; also recorded: did not show any detectable effect | appear unchanged; also recorded: did not produce any noticeable change | 0 | 0 | 0 | 1% | 2% | 5% | 10% |  |  | 
EGF-β: 52-residue peptide SHLVK-(B)-QNYVMAS; EGF-like domain (residues 177-228) of NDF/heregulin β1 (SHLVKCAEKEKTFCVNGGECFMVKDLSNPSRYLCKCPNEFTGDRCQNYVMAS) | best results for cell proliferation; also recorded: stimulated the proliferation of LIM 1215 cells | Evidence of cellular morphological changes is seen; also recorded: noticeable change in morphology, becoming enlarged and assuming a cobblestone-like appearance | + | + | - | 7.5% | 13% | 14% | 19% | stimulated the proliferation of Schwann cells to a significantly greater extent than EGF-β/α | more resistant to this enzyme and cleaved at a slower rate | unchanged
